Measurements reported in patent publication US4605614A, “Method for measuring plasmin” (Nitto Boseki Co., Ltd., priority 1981, dated 1986).

How the values were obtained:
[1] = target: Urokinase (UK) (Homo sapiens, UniProt P00749); format: biochemical; details: TABLE 4, CHA substrates; So = 0.54; pH 8.2; 37° C., 10 minutes; 1000 IU/ml
Protocol: (§1) The specificities of the novelly synthesized substrates were tested by reacting them with various enzymes respectively.
(§2) (1) Substrate solution concentration: 35 mmole/liter H2 O
(§3) (2) Buffer: Tris-hydrochloric acid buffer 50 mmole/l, NaCl 150 mmole/l (0.875%) was employed, and the pH for reaction was as follows depending on the enzyme.
(§4) 2,6-Xylenol 7.0 mmole+NaIO4 1.5 mmole/0.2N KOH
(§5) 0.5 ml of the buffer solution and 0.05 ml of the enzyme reagent were taken into a silicon-treated hard glass test tube or a plastic test tube, and preheated in a constant temperature bath at 37° C. for 5 minutes. Thereafter, 0.1 ml of the substrate solution was added to effect the enzymatic reaction at 37° C. for 10 minutes. Exactly after 10 minutes, 2.5 ml of the reaction terminating solution or the terminating and color developing reagent solution was added to terminate the enzymatic reaction, and after allowing to stand at 25° C. for 10 minutes, the absorbance at 405 nm or 645 nm was measured, in which [drawing 49]

[2] = target: Thrombin (TH) (Bos taurus, UniProt P00735); format: biochemical, Cow; details: TABLE 4, CHA substrates; So = 0.54; pH 8.4; 37° C., 10 minutes; 1.0 NIH/ml
[3] = target: Kallikrein (KL) (Sus scrofa, UniProt P00752); format: biochemical, Pig; details: TABLE 4, CHA substrates; So = 0.54; pH 7.9; 37° C., 10 minutes; 1.0 BAEE-U/ml
Protocol: as §1, §2, §3, §4, §5

[4] = target: Plasmin (PL) (Sus scrofa, UniProt P06867); format: biochemical, Pig; details: TABLE 4, CHA substrates; So = 0.54; pH 7.4; 37° C., 10 minutes; 0.32 CU/ml
Protocol: as §2, §3
Plasmin Pig Sigma (U.S.A.)
as §5

[5] = target: plasmin (pig) (Sus scrofa, UniProt P06867); experiment: Km, Vmax and Vmax/Km of substrates for plasmin (pig); format: biochemical, Porcine (pig); details: for Vmax (× 10^-7): TABLE 2, CHA substrates, plasmin (pig), 2,6-xylenol 615 nm; for Relative ratio: TABLE 2, V/Km of each sample divided by that of S2251 (so in the source)
[6] = target: Factor-Xa (FXa) (Bos taurus, UniProt P00743); format: biochemical, Cow; details: TABLE 4, CHA substrates; So = 0.54; pH 8.4; 37° C., 10 minutes; 0.4 U/ml
Sequence of Factor-Xa (FXa) (P00743 41-180): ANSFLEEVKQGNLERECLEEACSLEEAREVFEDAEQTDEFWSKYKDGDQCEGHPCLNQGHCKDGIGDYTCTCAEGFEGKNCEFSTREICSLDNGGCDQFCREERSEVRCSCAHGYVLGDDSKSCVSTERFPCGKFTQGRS
Sequence of Factor-Xa (FXa) (P00743 234-492): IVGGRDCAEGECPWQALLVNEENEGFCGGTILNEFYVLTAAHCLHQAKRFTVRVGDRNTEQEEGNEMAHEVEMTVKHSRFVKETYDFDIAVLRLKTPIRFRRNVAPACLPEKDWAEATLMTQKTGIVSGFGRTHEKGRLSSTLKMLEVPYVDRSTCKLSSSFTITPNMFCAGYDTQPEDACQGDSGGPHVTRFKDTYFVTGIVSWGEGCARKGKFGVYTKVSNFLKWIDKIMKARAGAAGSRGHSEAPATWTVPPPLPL
Protocol: as §1, §2, §3, §4, §5

Sequence of Plasmin (PL) (P06867 97-809): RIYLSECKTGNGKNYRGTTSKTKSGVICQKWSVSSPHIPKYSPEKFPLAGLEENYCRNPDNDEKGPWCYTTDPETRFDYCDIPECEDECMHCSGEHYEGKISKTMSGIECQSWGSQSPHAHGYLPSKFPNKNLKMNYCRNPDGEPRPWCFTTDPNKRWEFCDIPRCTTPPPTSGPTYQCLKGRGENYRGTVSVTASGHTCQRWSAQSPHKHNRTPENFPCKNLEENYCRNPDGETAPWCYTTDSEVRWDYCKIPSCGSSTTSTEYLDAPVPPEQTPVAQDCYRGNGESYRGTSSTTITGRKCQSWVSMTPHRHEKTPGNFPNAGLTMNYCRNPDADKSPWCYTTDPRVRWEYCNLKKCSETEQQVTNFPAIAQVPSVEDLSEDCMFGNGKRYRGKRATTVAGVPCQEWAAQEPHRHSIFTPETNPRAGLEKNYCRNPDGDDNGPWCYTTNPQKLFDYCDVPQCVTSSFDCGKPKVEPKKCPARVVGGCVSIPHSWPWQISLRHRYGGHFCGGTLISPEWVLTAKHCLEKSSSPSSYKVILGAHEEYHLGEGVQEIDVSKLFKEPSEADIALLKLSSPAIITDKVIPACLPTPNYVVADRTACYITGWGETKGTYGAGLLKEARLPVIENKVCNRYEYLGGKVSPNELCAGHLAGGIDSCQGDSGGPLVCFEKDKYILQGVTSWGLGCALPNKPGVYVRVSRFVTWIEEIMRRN
Sequence of plasmin (pig) (P06867 97-809): as above
Sequence of Kallikrein (KL) (P00752 8-246): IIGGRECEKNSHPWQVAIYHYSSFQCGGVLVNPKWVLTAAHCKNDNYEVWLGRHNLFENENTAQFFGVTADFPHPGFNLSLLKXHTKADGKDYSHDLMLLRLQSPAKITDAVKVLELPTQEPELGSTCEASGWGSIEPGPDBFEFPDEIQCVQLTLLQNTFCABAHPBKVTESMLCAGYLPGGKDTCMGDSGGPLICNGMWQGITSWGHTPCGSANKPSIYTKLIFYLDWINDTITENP
Sequence of Thrombin (TH) (P00735 44-625): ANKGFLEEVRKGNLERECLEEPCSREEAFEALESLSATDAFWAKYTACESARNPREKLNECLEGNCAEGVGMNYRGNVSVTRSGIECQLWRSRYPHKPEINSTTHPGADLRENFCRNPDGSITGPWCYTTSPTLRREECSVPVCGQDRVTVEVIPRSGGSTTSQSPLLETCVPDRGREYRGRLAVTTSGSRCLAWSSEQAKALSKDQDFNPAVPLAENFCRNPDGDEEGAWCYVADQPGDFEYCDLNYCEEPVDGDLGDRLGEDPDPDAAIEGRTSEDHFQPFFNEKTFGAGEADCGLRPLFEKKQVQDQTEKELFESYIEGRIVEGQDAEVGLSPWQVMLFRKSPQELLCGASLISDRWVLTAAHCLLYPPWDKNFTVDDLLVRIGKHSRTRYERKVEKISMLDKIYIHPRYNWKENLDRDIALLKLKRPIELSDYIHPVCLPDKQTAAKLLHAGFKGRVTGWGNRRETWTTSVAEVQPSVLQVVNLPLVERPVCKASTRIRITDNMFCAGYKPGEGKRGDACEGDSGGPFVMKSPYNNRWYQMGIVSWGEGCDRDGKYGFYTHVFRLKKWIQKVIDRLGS

SMILES	Selectivity UK, absorbance (O.D.) at 645 nm [1] [O.D.]	Selectivity TH, absorbance (O.D.) at 645 nm [2] [O.D.]	Selectivity KL, absorbance (O.D.) at 645 nm [3] [O.D.]	Selectivity PL, absorbance (O.D.) at 645 nm [4] [O.D.]	Vmax (× 10^-7) [5]	Relative ratio [5]	Selectivity FXa, absorbance (O.D.) at 645 nm [6] [O.D.]
CC(C)C[C@H](NC(=O)[C@H](N)C(C)C)C(=O)N[C@@H](CCCCN)C(=O)Nc1ccc(O)c(C(=O)O)c1 [NPC-1, HD-ValLeuLysCHA.2HBr]	0	0	0.002	0.013	3.556 × 10^-7	1.000	0.002
CC(C)[C@@H](N)C(=O)N[C@@H](Cc1ccccc1)C(=O)N[C@@H](CCCCN)C(=O)Nc1ccc(O)c(C(=O)O)c1 [NPC-2, HD-ValPheLysCHA.2HCl]	0.002	0.002	0.006	0.090	8.266 × 10^-7	11.811	0.004
NCCCC[C@@H](N)C(=O)N[C@@H](Cc1ccccc1)C(=O)N[C@@H](CCCCN)C(=O)Nc1ccc(O)c(C(=O)O)c1 [NPC-3]	0	0	0.004	0.096	7.506 × 10^-7	30.432	0.002
CC(=O)NCCCC[C@@H](N)C(=O)N[C@@H](Cc1ccccc1)C(=O)N[C@@H](CCCCN)C(=O)Nc1ccc(O)c(C(=O)O)c1 [NPC-4, HD-Lys(AC)PheLysCHA.2HCl]	0	0.001	0.006	0.144	10.940 × 10^-7	39.351	0.002
Cc1ccc(S(=O)(=O)NCCCC[C@H](N)C(=O)N[C@@H](Cc2ccccc2)C(=O)N[C@@H](CCCCN)C(=O)Nc2ccc(O)c(C(=O)O)c2)cc1 [NPC-5, HL-Lys(Tos)PheLysCHA.2HCl]	0	0	0.001	0.051	3.159 × 10^-7	9.739	0.002
Cc1ccc(C(=O)NCCCC[C@@H](N)C(=O)N[C@@H](Cc2ccccc2)C(=O)N[C@@H](CCCCN)C(=O)Nc2ccc(O)c(C(=O)O)c2)cc1 [NPC-6, HD-Lys(Toc)PheLysCHA.2HCl]	0	0	0.007	0.147	11.670 × 10^-7	137.973	0.001
Cc1ccc(S(=O)(=O)NCCCC[C@@H](N)C(=O)N[C@@H](Cc2ccccc2)C(=O)N[C@@H](CCCCN)C(=O)Nc2ccc(O)c(C(=O)O)c2)cc1 [NPC-7, 2HCl.H-D-Lys(ToS)-L-Phe-L-Lys-CHA]	0	0	0.007	0.420	29.417 × 10^-7	128.468	0.001
NCCCC[C@H](NC(=O)[C@H](Cc1ccccc1)NC(=O)[C@H](N)CCCCNS(=O)(=O)c1ccc2ccccc2c1)C(=O)Nc1ccc(O)c(C(=O)O)c1 [NPC-8, HD-Lys(NaS)PheLysCHA.2HCl]	0.002	0	0.011	0.498	30.814 × 10^-7	154.748	0.002
NCCCC[C@H](NC(=O)[C@H](Cc1ccccc1)NC(=O)[C@H](N)CCCCNC(=O)c1ccc2ccccc2c1)C(=O)Nc1ccc(O)c(C(=O)O)c1 [NPC-9, HD-Lys(NaC)PheLysCHA.2HCl]	0	0	0.027	0.120	13.827 × 10^-7	38.270	0.001
